Data on one substance can be found in patent US8680059B2, “Oligopeptide acetate and formulations thereof” (Biotempt B.V., priority 1998, dated 2014).

This assay has as its system RAW 264.7 murine macrophage cell line. Briefly: Nitrite (NO) production in LPS-stimulated RAW 264.7 macrophages. It is filed as cell-based. The settings on record: co-stimulated with LPS 10 microg/ml, peptide even at 1 pg/ml, 24 hours. The protocol: Cell culture. The RAW 264.7 murine macrophage cell line, obtained from American Type Culture Collection (Manassas, Va., USA), were cultured at 37° C. in 5% CO2 using DMEM containing 10% fetal calf serum (FCS), 50 U/ml penicillin, 50 μg/ml streptomycin, […] Na-pyruvate, 2 mM glutamine and 50 μM 2-mercaptoethanol (Bio Whittaker, Europe). The medium was changed every 2 days.
Nitrite measurements. Nitrite production was measured in the RAW 264.7 macrophage supernatants. The cells (7.5×10^5/ml) were cultured in 48-well plates in […] of culture medium. The cells were stimulated with LPS (10 microg/ml) and/or peptide (1 pg/ml, 1 ng/ml, 1 μg/ml) for 24 hours, then the culture media were collected. Nitrite was measured by adding 100 microl of Griess reagent (Sigma) to 100 microl samples of culture medium. The OD540 was measured using a microplate reader, and the nitrite concentration was calculated by comparison with the OD540 produced using standard solutions of sodium nitrite in the culture medium.

Take “AQGV [tetrapeptide derived from human chorionic gonadotropin, alanine replacement of LQGV]”: the NO production entry is given as “inhibited the production of NO”.
